These are literature values, as cited in US20070281011A1, “Nanoparticulate posaconazole formulations” (Elan Pharma International Ltd., priority 2006, published 2007).

The conditions of data set [1]: meal containing fat calories; regardless of formulation (tablet versus suspension).
The test system of data set [2] is cytochrome P450 14a-demethylase (P45014DM). The conditions noted are these: particularly in Aspergillus.

For the compound `CC[C@@H]([C@H](C)O)n1ncn(-c2ccc(N3CCN(c4ccc(OC[C@@H]5CO[C@@](Cn6cncn6)(c6ccc(F)cc6F)C5)cc4)CC3)cc2)c1=O` [Posaconazole], the aqueous solubility was under 1 µg/mL. Moreover, the “increase of relative oral bioavailability” value in data set [1] was “approximately 400%”. In addition, the “inhibition of sterol C14 demethylation compared to itraconazole” value in data set [2] is recorded as “significantly more potent inhibitor”.
